Data as given in patent US9028845B2, “Chimeric immunomodulatory compounds and methods of using the same-IV” (Dynavax Technologies Corporation, priority 2001, dated 2015).
Strand notation (5' to 3'): a small letter for the sugar, then the base; units joined by * are phosphorothioate-linked, units joined directly phosphodiester-linked; [ ] holds rarer units or linkages, { } end groups; capitals alone tell only the bases. d = 2'-deoxy (DNA)

Assays:
[1] = system: mice; assay: Serum cytokines (IL-12 p40, IL-6, TNF-α) after subcutaneous injection in mice; assay type: in vivo; conditions: 20 ug subcutaneous, blood 2 hours later
Outline: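 Blood was taken 2 h after subcutaneous injection. LPS positive-control mice were dosed intraperitoneally and bled at 1.5 h, at the peak of TNF-α. Sera were stored at −80° C and TNF-α, IL-6 and IL-12 were measured by immunoassay kits or antibody pairs in duplicate.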

[2] = system: mouse splenocytes; assay: Mouse splenocyte cytokine secretion (IL-6, IL-12, IFN by ELISA); assay type: cell-based, BALB/c mice; design: IFN: unit not given beside the values; conditions: 24 h
Protocol: Polynucleotides and chimeric compounds were tested for immunostimulatory activity on mouse splenocytes. Immunostimulation was assessed by measurement of cytokine secretion into the culture media. Cytokine levels in the culture supernatant were determined by enzyme-linked immunosorbent assay (ELISA) tests.
Cells were isolated and prepared using standard techniques. Spleens of 8 to 20 week-old BALB/c mice were harvested and the splenocytes isolated using standard teasing and treatment with ACK lysing buffer from BioWhittaker, Inc. Four spleens were pooled in this experiment. Isolated cells were washed in RPMI 1640 media supplemented with 2% heat-inactivated fetal calf serum (FCS), 50 μM 2-mercaptoethanol, 1% penicillin-streptomycin, and 2 mM L-glutamine and resuspended at approximately […] in 10% FCS/RPMI (RPMI 1640 media with 10% heat-inactivated FCS, 50 μM 2-mercaptoethanol, 1% penicillin-streptomycin, and 2 mM L-glutamine).
Cell cultures were set up in triplicate with approximately 7×10^5 cells/well in a 96-well flat microtiter plate in 100 μl 10% FCS/RPMI with the cells allowed to rest for at lest 1 hour after plating. The indicated test compounds were incubated (at the indicated concentrations) for 24 hours at 37° C. Cell supernatants were harvested and frozen at −80° C. Cytokine production by the cells was determined by ELISAs, as shown in 19.

[3] = system: PBMCs; assay: Human PBMC proliferation assay (3H-thymidine incorporation); assay type: cell-based; conditions: Experiment A; for mean cpm: 2 μg/ml
[4] = system: CD19+ B cells; assay: Human B cell proliferation assay (3H-thymidine incorporation); conditions: 2 μg/ml; for cpm1 / cpm2 / cpm3 / mean cpm / mean of both: B cells
Protocol: Purified human B cells from 2 donors were stimulated with 5 μg/ml P-6 or CIC for 96 h. Proliferation was assessed by ^3H-thymidine incorporation.
A CIC is considered to induce “little” human B cell proliferation if B cell proliferation in the presence of the CIC is between greater than 15 to about 30% of P-6.
Human PBMCs were isolated from heparanized blood from two normal subjects. Some PBMCs were held in reserve while the remainder was incubated with CD19+ MACS beads (Miltenyi Biotec). These cells were then passed through a magnet, separating the CD19+ B cells through positive selection. […] B cells were then cultured at 1×10^5/200 μl/well in 96-well round-bottomed plates. In some cases, PBMCs were also cultured, but at 2×10^5/200 μl/well. Cells were stimulated in triplicate with 2 μg/ml polynucleotide or CIC. The culture period was 48 hours at 37° C. At the end of the culture period, the plates were pulsed with ^3H-thymidine, 1 μCi/well, and incubated for an additional 8 hours. Then the plates were harvested using standard liquid scintillation techniques and data was collected in counts per minutes (cpm).

## 5′-TGACTGTGAACCTTAGAGATGA-3′ (SEQ ID NO: 3) (dT*dG*dA*dC*dT*dG*dT*dG*dA*dA*dC*dC*dT*dT*dA*dG*dA*dG*dA*dT*dG*dA) [Compound P-7, reference compound]
[1]
  induction of serum IL-12 p40, IL-6 and TNF-α, in words: inactive
[2]; dose 1.0 μg/ml
  IFN: 30
  IL-6: 7
  IL-12: 143
[2]; dose 5.0 μg/ml
  IFN: 23
  IL-6: 9
  IL-12: 177
[3]; Donor 146, 2 μg/ml
  cpm1: 7620 cpm
  cpm2: 8362 cpm
  cpm3: 9686 cpm
[3]; Donor 146 mean
  mean cpm: 8556 cpm
[3]; Donor 147, 2 μg/ml
  cpm1: 9783 cpm
  cpm2: 9841 cpm
  cpm3: 10476 cpm
[3]; Donor 147 mean
  mean cpm: 10033 cpm
[3]; mean of Donors 146 and 147, 2 μg/ml
  mean of both: 9295 cpm
[4]; 48 h plus 8 h 3H-thymidine pulse
  B cell proliferation, in words: little to no B cell proliferation
[4]; Donor 146, Experiment A
  cpm1: 4858 cpm
  cpm2: 5810 cpm
  cpm3: 7079 cpm
[4]; Donor 146 mean, Experiment A
  mean cpm: 5916 cpm
[4]; Donor 147, Experiment A
  cpm1: 4364 cpm
  cpm2: 4066 cpm
  cpm3: 2774 cpm
[4]; Donor 147 mean, Experiment A
  mean cpm: 3735 cpm
[4]; donor 121, Experiment B
  cpm1: 1623 cpm
  cpm2: 1821 cpm
  cpm3: 2901 cpm
[4]; donor 121 mean, Experiment B
  mean cpm: 2115 cpm
[4]; donor 194, Experiment B
  cpm1: 1992 cpm
  cpm2: 1593 cpm
  cpm3: 1686 cpm
[4]; donor 194 mean, Experiment B
  mean cpm: 1757 cpm
[4]; mean of Donors 146 and 147, Experiment A
  mean of both: 4825 cpm
[4]; mean of donors 121 and 194, Experiment B
  mean of both: 1936 cpm
